Data reported in patent publication US6586455B1, “Treatment of liposarcomas using a combination of thiazolidinediones and retinoid X receptor selective agonists” (The Salk Institute for Biological Studies, priority 1996, dated 2003).

Legend:
Format in all cases: cell-based
LS857 cells = assay: Differentiation / lipid accumulation of primary human liposarcoma cells LS857; details: 7 days
Protocol: (§1) Liposarcomas have presumably acquired one or more genetic defects that interfere with the course of normal adipocyte development. The observation that PPARγ is expressed consistently in these tumors raised the possibility that the malignant cells might be forced to complete the differentiation program by maximally activating the PPARγ pathway. To address this possibility, primary cells isolated from three human liposarcomas were cultured in vitro. Primary cell strains LS857 and LS175 were derived from well differentiated liposarcomas and LS707 was derived from an intermediate grade myxoid/round cell liposarcoma (see Table 3). High grade pleomorphic liposarcoma cells could not be expanded to sufficient numbers to permit studies of differentiation. A primary leiomyosarcoma cell line LM203 was cultured as a control. To confirm that these cultures consisted of malignant tumor-derived cells, cytogenetic analysis was performed.
(§2) When cultured in the presence of fetal bovine serum and insulin, conditions permissive for adipocyte differentiation, all three cell lines maintain a fibroblastic morphology. LS175 cells contained small amounts of stainable lipid under these conditions. […] The degree of morphologically recognizable differentiation varied from 40% in the LS857 cells to 75% in the LS175 cells. […] This experiment was performed at least twice with each cell strain with quantitatively and qualitatively similar results.
The ability of LG268 to promote differentiation of human liposarcoma cells was then examined. […] To further characterize the effects of PPARγ and RXR ligands on liposarcoma cells, the expression of adipocyte-specific markers were examined by Northern blotting. LS857 cells, like the tumor from which they were derived, express PPARγ mRNA. Treatment of LS857 cells with pioglitazone leads to the induction of two markers of terminal adipocyte differentiation, the MRNAs encoding aP2 and adipsin. […]

NIH-vector cells = assay: Adipocyte differentiation, oil red O staining, NIH-vector cells; details: 7 days; for % lipid containing cells: range over three experiments
Protocol: Simultaneous exposure of competent cells to both PPARγ and RXR-specific ligand was investigated to determine if such combination might provide a stronger adipogenic signal than a PPARγ ligand alone. The ability of the. […] It has previously been shown that wild-type NIH-3T3 cells express RXRα, but not PPARγ. NIH-vector and NIH-PPARγ cells were cultured as described in the Examples. […] After an additional four days of culture, cells were fixed and stained with oil red O. Data are presented in Table 1 as the range of morphologically recognizable differentiation observed for each line over three separate experiments.

NIH-PPARγ cells = assay: Adipocyte differentiation, oil red O staining, NIH-3T3 fibroblasts expressing PPARγ; details: 7 days; for % lipid containing cells: NIH-PPARγ cells, range over three experiments
Protocol: Simultaneous exposure of competent cells to both PPARγ and RXR-specific ligand was investigated to determine if such combination might provide a stronger adipogenic signal than a PPARγ ligand alone. The ability of the. […] It has previously been shown that wild-type NIH-3T3 cells express RXRα, but not PPARγ. NIH-vector and NIH-PPARγ cells were cultured as described in the Examples.

LS175 cells = assay: Differentiation / lipid accumulation of primary human liposarcoma cells LS175; details: 10 μM, 7 days
Protocol: as §1
as §2, with “[…]. […]” for “This experiment was performed at least twice with each cell strain with quantitatively and qualitatively similar results.”

| Structure (SMILES) | lipid accumulation, oil red O, macroscopic view of culture dishes (LS857 cells; LS857, 5 μM thiazolidinedione, 50 nM LG268, four more days of culture) | adipocyte differentiation (in words) (LS857 cells; LS857 cells, 50 nM LG268, 10 μM pioglitazone) | % lipid containing cells (NIH-vector cells; 50 nM LG268 alone) [%] | adipogenic effect (in words) (NIH-vector cells) | % lipid containing cells (NIH-PPARγ cells; 50 nM LG268 alone) | stimulation of adipocyte differentiation (in words) (NIH-PPARγ cells; confluent NIH-PPARγ cells, 50 nM LG268, 1 μM pioglitazone) | degree of morphologically recognizable differentiation (LS857 cells; LS857 cells, 10 μM) [%] | % lipid containing cells (NIH-vector cells; 1 μM pioglitazone alone) [%] | degree of morphologically recognizable differentiation (LS175 cells) [%] | % lipid containing cells (NIH-PPARγ cells; 1 μM pioglitazone alone) |
| --- | --- | --- | --- | --- | --- | --- | --- | --- | --- | --- |
| Cc1cc2c(cc1C1(c3ccc(C(=O)O)cn3)CC1)C(C)(C)CCC2(C)C [LG268, 6-[1-(8 pentamethyl-5,6,7,8-tetrahydronaphthalen-2-yl)cyclopropyl]nicotinic acid] | significant lipid accumulation | significant degree of adipocyte differentiation | 0 | no effect | 50-65% | significant stimulation of adipocyte differentiation |  |  |  |  |
| CCc1ccc(CCOc2ccc(CC3SC(=O)NC3=O)cc2)nc1 (stereo not shown) [pioglitazone] |  |  |  |  |  |  | 40 | 0 | 75 | 60-70% |
